SMILES strings stand for the structures. Converted amounts (≈) assume the structure as drawn.

Compound `Cc1cccc2c1c(C)cc1cc3ccccc3cc12` yielded a solubility (25 °C) of 1.06e-05 mM (≈ 0.00272 µg/mL). Regarding `c1ccc2ccccc2c1`, the solubility (25 °C) is 0.242 mM (≈ 31 µg/mL). Same read-out and setting: then `c1ccc2c(c1)ccc1ncccc12`, with 0.439 mM (≈ 78.7 µg/mL).

`c1ccc2c(c1)-c1ccc3ccc4cccc5cc-2c1c3c45` yielded a solubility (25 °C) of 6.88e-07 mM (≈ 0.00019 µg/mL).

`Cc1nc2ccccc2[nH]1` returned a solubility (25 °C) of 11 mM (≈ 1450 µg/mL). Turning to `c1ccc2c(c1)c1cccc3ccc4cccc2c4c31`, the solubility (25 °C) was found to be 1.89e-05 mM (≈ 0.00477 µg/mL). Where the note is “25 °C”, `c1ccc2cnccc2c1` showed a solubility of 35 mM (≈ 4520 µg/mL). `Cc1c2ccccc2c2ccc3cccc4ccc1c2c43` came in with a solubility (25 °C) of 3e-06 mM (≈ 0.000798 µg/mL). Compound `c1ccc2[nH]cnc2c1` came in with a solubility (20 °C) of 17 mM (≈ 2010 µg/mL).

In the case of `CCCCc1c2ccccc2cc2ccc3ccccc3c12`, for the setting “25 °C”, the solubility is 2.99e-05 mM (≈ 0.0085 µg/mL). Consider `c1ccc2[nH]ncc2c1`, for which the solubility (20 °C) was found to be 6.99 mM (≈ 826 µg/mL). `Cc1c[nH]c2ccccc12`: the solubility (25 °C) came out at 3.8 mM (≈ 498 µg/mL).

For `CCc1c2ccccc2cc2c1ccc1ccccc12`, the solubility (27 °C) came out at 0.00016 mM (≈ 0.041 µg/mL). For the compound `c1ccc2nccnc2c1`, the solubility (25 °C) is 5070 mM (≈ 660000 µg/mL).

Consider `c1ccc2cc3c(cc2c1)-c1cccc2cccc-3c12`, for which the solubility (25 °C) was 3.17e-06 mM (≈ 0.0008 µg/mL).

For orientation: solubility means the dissolved amount per volume that the medium holds.
